# Reference: ChEMBL document CHEMBL1150946, “Antipruritic dinaphthofuran-7,12-dione derivatives from the pericarp of Impatiens balsamina” (J Nat Prod, 1998)
# Calls of active or inactive are those of the source. No cut-off for these calls is given here.
# Test system: Mus musculus
# Assay: Antipruritic activity in ddY mouse assessed as inhibition of compound 48/80-induced nose scratching behavior at 10 mg/kg, po for 20 mins preincubated 24 hrs before compound 48/80 challenge
# Type: functional, organism-based
# Parameters: dose 10 mg/kg
row,SMILES,Activity
1,COC1=CC(=O)c2ccccc2C1=O,Active
2,COc1c(O[C@@H]2O[C@H](CO)[C@@H](O)[C@H](O)[C@H]2O)c2ccccc2c2oc3c(c12)C(=O)c1ccccc1C3=O,Active
